Data taken from paper PMC5800995 (Biochemical pharmacology, 2018).

Biological target: human D2LR E95^2.65A (Homo sapiens, UniProt P14416, E95A)
Assay: ERK1/2 phosphorylation, E95^2.65A
Assay type: cell-based
Conditions: for Kb: read-out: KB Function (pERK1/2); for Schild slope: dopamine-mediated pERK1/2, competitive model

Sequence of human D2LR E95^2.65A (P14416 whole entry E95A): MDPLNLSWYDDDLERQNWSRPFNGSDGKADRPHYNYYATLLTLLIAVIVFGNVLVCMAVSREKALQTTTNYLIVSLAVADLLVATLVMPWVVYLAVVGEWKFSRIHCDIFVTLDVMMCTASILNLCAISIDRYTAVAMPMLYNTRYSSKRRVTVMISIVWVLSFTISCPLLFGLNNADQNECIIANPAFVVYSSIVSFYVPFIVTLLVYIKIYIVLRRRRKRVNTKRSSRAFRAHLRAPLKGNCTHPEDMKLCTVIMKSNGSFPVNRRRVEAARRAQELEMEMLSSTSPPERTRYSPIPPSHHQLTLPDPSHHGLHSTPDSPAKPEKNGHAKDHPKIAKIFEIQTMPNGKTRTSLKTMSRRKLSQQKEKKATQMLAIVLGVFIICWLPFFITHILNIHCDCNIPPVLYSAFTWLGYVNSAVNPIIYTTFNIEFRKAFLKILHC

Row | Structure (SMILES) | Logαβ (net cooperativity with dopamine) | fold loss in functional affinity vs WT | pKB Function (pERK1/2) | αβ (net cooperativity with dopamine) | fold loss in negative cooperativity with dopamine vs WT (pERK1/2) | Kb | Schild slope
1 | O=C(N[C@H]1CC[C@H](CCN2CCc3ccccc3C2)CC1)c1cc2ccccc2[nH]1 [MIPS1278] | −0.30 ± 0.20 | 709 fold | 4.21 ± 0.15 | 0.50 | 6 fold | 61700 nM | 
2 | N#Cc1ccc2c(c1)CN(CCC1CCC(NC(=O)c3nc4ccccc4o3)CC1)CC2 (stereo not drawn) [MIPS1528] |  |  | 5.92 ± 0.07 |  |  | 1200 nM | 1.68 ± 0.10
3 | O=C(N[C@H]1CC[C@H](CCN2CCc3ccc(Br)cc3C2)CC1)c1cc2ccccc2[nH]1 [MIPS1556] |  |  | 5.96 ± 0.12 |  |  |  | 1.08 ± 0.09
4 | N#Cc1ccc2c(c1)CN(CCC1CCC(NC(=O)c3ccc[nH]3)CC1)CC2 (stereo not drawn) [MIPS1576] | −1.24 ± 0.10 | 24 fold | 7.02 ± 0.15 | 0.06 |  | 95 nM | 
5 | N#Cc1ccc2c(c1)CN(CCC1CCC(NC(=O)c3cc4cccnc4[nH]3)CC1)CC2 (stereo not drawn) [MIPS1588] | −1.12 ± 0.16 | 27 fold | 5.90 ± 0.20 | 0.08 |  | 1260 nM | 
